How the values were obtained:
[1] = molecular target: T1, MMR.Fc (Homo sapiens, UniProt P22897); assay: Sugar competition EIA, MMR.Fc binding to GLPS-F3; conditions: sugar 1 mg/ml
T1 construct: The extracellular domains of lectin receptors, TREMs and TLTs were cloned by the reverse-transcriptase polymerase chain reaction (RT-PCR); made in house; host or cells: 293-F (FreeStyle 293) cells
T1 sequence (P22897 19-1389 limits assumed): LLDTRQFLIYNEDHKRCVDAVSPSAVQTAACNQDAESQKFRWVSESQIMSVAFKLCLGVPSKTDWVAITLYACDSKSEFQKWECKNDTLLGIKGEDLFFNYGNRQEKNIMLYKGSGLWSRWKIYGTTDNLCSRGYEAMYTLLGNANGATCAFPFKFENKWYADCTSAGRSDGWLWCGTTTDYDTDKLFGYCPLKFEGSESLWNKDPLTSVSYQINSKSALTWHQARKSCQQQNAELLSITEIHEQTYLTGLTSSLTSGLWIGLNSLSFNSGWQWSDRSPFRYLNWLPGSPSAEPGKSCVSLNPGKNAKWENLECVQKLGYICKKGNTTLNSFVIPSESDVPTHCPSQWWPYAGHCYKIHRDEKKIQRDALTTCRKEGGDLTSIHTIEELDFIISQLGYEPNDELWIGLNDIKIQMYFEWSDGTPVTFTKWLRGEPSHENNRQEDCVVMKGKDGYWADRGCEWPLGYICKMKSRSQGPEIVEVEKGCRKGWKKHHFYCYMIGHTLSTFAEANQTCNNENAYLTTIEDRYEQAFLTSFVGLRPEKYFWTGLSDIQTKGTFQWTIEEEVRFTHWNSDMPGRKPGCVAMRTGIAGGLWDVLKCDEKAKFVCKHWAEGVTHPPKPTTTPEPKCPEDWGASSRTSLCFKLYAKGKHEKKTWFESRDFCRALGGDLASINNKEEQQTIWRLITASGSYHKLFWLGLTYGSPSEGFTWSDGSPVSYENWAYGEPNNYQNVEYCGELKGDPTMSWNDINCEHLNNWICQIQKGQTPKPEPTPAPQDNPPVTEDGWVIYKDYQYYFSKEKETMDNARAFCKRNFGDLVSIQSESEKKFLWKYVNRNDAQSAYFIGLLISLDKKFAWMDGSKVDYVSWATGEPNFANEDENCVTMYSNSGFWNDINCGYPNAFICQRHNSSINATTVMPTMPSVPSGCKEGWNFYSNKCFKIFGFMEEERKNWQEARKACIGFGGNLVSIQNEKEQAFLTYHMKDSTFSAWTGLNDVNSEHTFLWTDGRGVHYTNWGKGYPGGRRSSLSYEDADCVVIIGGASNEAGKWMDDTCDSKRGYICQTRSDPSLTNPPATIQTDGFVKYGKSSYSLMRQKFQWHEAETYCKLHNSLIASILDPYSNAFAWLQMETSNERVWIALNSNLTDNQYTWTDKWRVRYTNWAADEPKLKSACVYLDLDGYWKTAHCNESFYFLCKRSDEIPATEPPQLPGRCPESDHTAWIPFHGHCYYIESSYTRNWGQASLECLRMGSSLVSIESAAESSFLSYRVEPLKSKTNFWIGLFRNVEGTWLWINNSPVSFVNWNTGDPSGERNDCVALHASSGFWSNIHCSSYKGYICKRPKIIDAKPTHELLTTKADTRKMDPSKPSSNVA
Experimental: (§1) The interaction between GLPS-F3 and receptor.Fc was then tested. Unbiotinylated GLPS-F3 was immobilized at 100 ng/well as described above, and 100 μL receptor.Fc fusion protein (1 μg/ml in 2 mM MgCl2/2 mM CaCl2/1% BSA/TBST) was added into each well and incubated for 1 hour at room temperature. After washing with TBST, wells were incubated with peroxidase-conjugated goat anti-human IgG Ab (1:5000 dilution, Jackson ImmunoResearch Laboratories) in blocking buffer at room temperature for 30 min. Wells were incubated with 100 μL TMB substrate for 15 min after TBST washing and read at 450 nm in a Fusion plate reader (Perkin Elmer). The results were normalized with respect to Fc.Dectin-1 binding (Dectin-1 is a known lectin receptor that binds to β-1,3-glucan which is the backbone found in GLPS-F3). FIG. 6B depicts in graphical form the affinity of each receptor for GLPS-F3 relative to Dectin-1. […] There was also weaker but positive GLPS-F3 binding ability (25-50% binding intensity compared to Fc.dectin-1) found in Fc.NKG2D, Fc.MINCLE, Fc.mKCR, DCAL1.Fc, DEC205.Fc, Endo180.Fc and NKp30(NCR3).Fc.
(§2) To understand the interaction of GLPS-F3 with specific innate immunity receptors, the polysaccharides mannan and β-glucan and the monosaccharides D-mannose (Man), D-glucose (Glc), N-acetyl-glucosamine (GlcNAc), D-galactose (Gal), N-acetyl-galactosamine (GalNAc), L-fucose (Fuc) and sialic acid, were used in a competition assay. […] The assays were carried out as in Example 9, with the addition of 1 mg/ml of each polysaccharide or monosaccharide.

[2] = molecular target: T2, Dectin-1.Fc (Homo sapiens, UniProt Q9BXN2); assay: Immunosorbent dot binding assay with Dectin-1.Fc; conditions: competitor 0.1 μg-1000 μg, or EDTA 10 mM in TBST
T2 construct: The extracellular domains of lectin receptors, TREMs and TLTs were cloned by the reverse-transcriptase polymerase chain reaction (RT-PCR); made in house; host or cells: 293-F (FreeStyle 293) cells
T2 sequence (Q9BXN2 66-247 limits assumed): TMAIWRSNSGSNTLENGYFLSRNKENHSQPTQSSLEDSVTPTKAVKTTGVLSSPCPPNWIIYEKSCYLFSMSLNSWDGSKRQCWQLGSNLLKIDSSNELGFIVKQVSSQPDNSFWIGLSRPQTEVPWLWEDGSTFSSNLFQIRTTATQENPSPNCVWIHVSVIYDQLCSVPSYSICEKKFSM

[3] = molecular target: T3, TLR4.Fc (Homo sapiens, UniProt O00206); assay: Sugar competition EIA, TLR4.Fc binding to GLPS-F3; conditions: sugar 1 mg/ml
T3 construct: The extracellular domains of several innate immunity receptors from immune cells were cloned by reverse-transcription polymerase chain reaction (RT-PCR); made in house; host or cells: 293-F (FreeStyle 293) cells
T3 sequence (O00206 24-631 limits assumed): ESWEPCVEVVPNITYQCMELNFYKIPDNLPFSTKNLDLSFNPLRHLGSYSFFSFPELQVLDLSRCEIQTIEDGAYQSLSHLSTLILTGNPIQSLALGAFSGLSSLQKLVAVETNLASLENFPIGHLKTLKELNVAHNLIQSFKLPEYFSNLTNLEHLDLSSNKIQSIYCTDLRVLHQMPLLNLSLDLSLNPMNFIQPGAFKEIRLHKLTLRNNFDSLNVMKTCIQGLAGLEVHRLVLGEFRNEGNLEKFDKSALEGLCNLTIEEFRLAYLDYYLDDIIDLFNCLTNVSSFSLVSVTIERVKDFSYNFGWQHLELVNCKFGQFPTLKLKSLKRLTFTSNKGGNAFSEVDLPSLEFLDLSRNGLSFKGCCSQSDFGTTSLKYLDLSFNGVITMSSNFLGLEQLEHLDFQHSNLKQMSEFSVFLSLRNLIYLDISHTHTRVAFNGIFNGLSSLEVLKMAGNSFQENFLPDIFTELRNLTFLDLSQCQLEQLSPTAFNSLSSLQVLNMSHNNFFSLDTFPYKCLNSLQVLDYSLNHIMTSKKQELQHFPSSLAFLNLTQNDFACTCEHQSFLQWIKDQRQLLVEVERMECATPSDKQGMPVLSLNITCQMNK
Experimental: as §1, §2

[4] = molecular target: T4, Langerin (Homo sapiens, UniProt Q9UJ71); assay: Sugar competition EIA, Fc.Langerin binding to GLPS-F3; conditions: sugar 1 mg/ml
T4 construct: The extracellular domains of lectin receptors, TREMs and TLTs were cloned by the reverse-transcriptase polymerase chain reaction (RT-PCR); made in house; host or cells: 293-F (FreeStyle 293) cells
T4 sequence (Q9UJ71 65-328 limits assumed): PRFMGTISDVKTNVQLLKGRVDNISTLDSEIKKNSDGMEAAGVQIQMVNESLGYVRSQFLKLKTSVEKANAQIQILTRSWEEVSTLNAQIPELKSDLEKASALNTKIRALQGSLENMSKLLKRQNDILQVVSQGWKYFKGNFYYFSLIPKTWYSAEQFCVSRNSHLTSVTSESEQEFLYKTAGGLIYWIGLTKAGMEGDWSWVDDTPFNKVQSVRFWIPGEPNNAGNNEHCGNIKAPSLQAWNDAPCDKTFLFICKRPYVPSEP
Experimental: as §1, §2

[5] = molecular target: T5, Dectin-1 (Homo sapiens, UniProt Q9BXN2); assay: Sugar competition EIA, Fc.Dectin-1 binding to GLPS-F3; conditions: sugar 1 mg/ml
T5 construct: The extracellular domains of lectin receptors, TREMs and TLTs were cloned by the reverse-transcriptase polymerase chain reaction (RT-PCR); made in house; host or cells: 293-F (FreeStyle 293) cells
T5 sequence (Q9BXN2 66-247 limits assumed): T2 sequence (Q9BXN2 66-247 limits assumed)
Experimental: as §1, §2

[6] = molecular target: T6, DC-SIGN (Homo sapiens, UniProt Q9NNX6); assay: Sugar competition EIA, Fc.DC-SIGN binding to GLPS-F3; conditions: sugar 1 mg/ml
T6 construct: The extracellular domains of lectin receptors, TREMs and TLTs were cloned by the reverse-transcriptase polymerase chain reaction (RT-PCR); made in house; host or cells: 293-F (FreeStyle 293) cells
T6 sequence (Q9NNX6 59-404 limits assumed): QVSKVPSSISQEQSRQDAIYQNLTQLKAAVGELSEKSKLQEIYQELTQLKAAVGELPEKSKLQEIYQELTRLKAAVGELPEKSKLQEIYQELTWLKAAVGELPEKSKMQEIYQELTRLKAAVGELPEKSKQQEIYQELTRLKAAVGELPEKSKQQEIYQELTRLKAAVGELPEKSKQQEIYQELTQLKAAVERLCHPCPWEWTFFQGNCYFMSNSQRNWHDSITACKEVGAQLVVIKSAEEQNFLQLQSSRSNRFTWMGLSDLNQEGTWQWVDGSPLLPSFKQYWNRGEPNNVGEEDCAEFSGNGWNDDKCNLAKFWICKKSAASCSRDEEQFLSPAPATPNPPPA
Experimental: as §1, §2

[7] = molecular target: T7, CLEC-2 (Homo sapiens, UniProt Q9P126); assay: Sugar competition EIA, Fc.CLEC-2 binding to GLPS-F3; conditions: sugar 1 mg/ml
T7 construct: The extracellular domains of lectin receptors, TREMs and TLTs were cloned by the reverse-transcriptase polymerase chain reaction (RT-PCR); made in house; host or cells: 293-F (FreeStyle 293) cells
T7 sequence (Q9P126 55-229 limits assumed): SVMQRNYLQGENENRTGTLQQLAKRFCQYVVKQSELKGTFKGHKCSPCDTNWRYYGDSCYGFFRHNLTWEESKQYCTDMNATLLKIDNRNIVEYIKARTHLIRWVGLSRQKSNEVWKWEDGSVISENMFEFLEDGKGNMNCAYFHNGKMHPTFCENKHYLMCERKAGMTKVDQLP
Experimental: as §1, §2

[8] = molecular target: T8, CLEC-6 (Homo sapiens, UniProt Q8WXI8); assay: Sugar competition EIA, Fc.CLEC-6 binding to GLPS-F3; conditions: sugar 1 mg/ml
T8 construct: The extracellular domains of lectin receptors, TREMs and TLTs were cloned by the reverse-transcriptase polymerase chain reaction (RT-PCR); made in house; host or cells: 293-F (FreeStyle 293) cells
T8 sequence (Q8WXI8 39-215 limits assumed): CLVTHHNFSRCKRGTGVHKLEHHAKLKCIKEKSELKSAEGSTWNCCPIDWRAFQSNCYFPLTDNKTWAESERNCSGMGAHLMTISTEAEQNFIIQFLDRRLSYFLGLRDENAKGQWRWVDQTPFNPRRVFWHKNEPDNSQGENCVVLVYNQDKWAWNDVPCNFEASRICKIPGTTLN
Experimental: as §1, §2

Structure (SMILES) | inhibition of interaction between GLPS-F3 and MMR.Fc [1] | inhibition of the interaction between Dectin-1.Fc and F3 [2] | Percentage of binding of TLR4.Fc to GLPS-F3 relative to binding in absence of sugar competitor [3] | Percentage of binding of Langerin Fc fusion to GLPS-F3 relative to binding in absence of sugar competitor [4] | Percentage of binding of MMR.Fc to GLPS-F3 relative to binding in absence of sugar competitor [1] | Percentage of binding of Dectin-1 Fc fusion to GLPS-F3 relative to binding in absence of sugar competitor [5] | Percentage of binding of DC-SIGN Fc fusion to GLPS-F3 relative to binding in absence of sugar competitor [6] | Percentage of binding of CLEC-2 Fc fusion to GLPS-F3 relative to binding in absence of sugar competitor [7] | Percentage of binding of CLEC-6 Fc fusion to GLPS-F3 relative to binding in absence of sugar competitor [8] | inhibition of binding of Fc.DC-SIGN to GLPS-F3 [6] | inhibition of interaction between Fc.Langerin and GLPS-F3 [4] | inhibition of interaction between GLPS-F3 and Fc.Dectin-1 [5] | inhibition of interaction of Fc.CLEC-2 to GLPS-F3 [7]
O=C[C@H](O)[C@@H](O)[C@@H](O)[C@H](O)CO [Gal, D-galactose] | 36% | not | 100 ± 2.7% | – | – | – | – | – | – | – | – | – | –
CC(=O)N[C@H]1C(O)O[C@H](CO)[C@H](O)[C@@H]1O (stereo partly drawn) [GalNAc, N-acetyl-galactosamine] | – | – | 95 ± 4.1% | 97 ± 0.7% | 80 ± 4.2% | 88 ± 2.6% | 110 ± 3.1% | 110 ± 11.4% | 96 ± 2.4% | – | – | – | –
O=C[C@H](O)[C@@H](O)[C@H](O)[C@H](O)CO [Glc, D-glucose] | 45% | not | 101 ± 4.7% | – | – | – | – | – | – | 45% | – | – | –
CC(=O)N[C@H]1C(O)O[C@H](CO)[C@@H](O)[C@@H]1O (stereo partly drawn) [GlcNAc, N-acetyl-glucosamine] | 78% | – | 99 ± 4.7% | 16 ± 2.7% | 22 ± 3.4% | 91 ± 2.6% | 73 ± 8.6% | 103 ± 10.2% | 99 ± 8.5% | 27% | 84% | – | –
CC(=O)N[C@H]1[C@H]([C@H](O)[C@H](O)CO)OC(O)(C(=O)O)C[C@@H]1O (stereo partly drawn) [sialic acid] | 93% | – | 77 ± 3.1% | 5 ± 0.3% | 7 ± 2.4% | 17 ± 0.3% | 10 ± 1.0% | 45 ± 6.2% | 94 ± 13.0% | 90% | 95% | 83% | 55%
